As usually defined, the IC50 is the concentration at which inhibition is half-maximal. For orientation: MIC means the lowest concentration found to suppress growth. One may read the IC90 as the concentration needed for an effect of 90%. Lower therefore signals an effect from little substance. One may read the fraction unbound as the share of the substance not bound to proteins or other matrix. Lower therefore signals extensive binding.

Each structure is given as a SMILES string. Where two headings read alike, the source gives them in different places. Some results are limits rather than exact numbers.

The target of one data set is T1, CYP2C19 (Homo sapiens, UniProt P33261).
T1 construct: Compounds were incubated with human liver; from tissue; host or cells: human liver microsomes
The experiment in a line: Cytochrome P450 inhibition in human liver microsomes. It counts as in vitro ADME.

A short description of data set [1]: Cytotoxicity, THP-1 cell viability (CellTiter-Glo). The settings on record: human. For orientation: Cellular ATP, detected with luciferase, serves as a proxy for viable cell number.
Data set [2] concerns Mycobacterium tuberculosis H37Rv. The experiment in a line: Primary screen (Cycle 1): MIC, IC50, IC90 under aerobic conditions. It counts as cell-based.
The subject of another data set is Mycobacterium abscessus. The experiment in a line: MIC, IC50, IC90 against nontuberculous mycobacteria (OD590). It counts as cell-based. The settings on record: M. abscessus.
In data set [3] the test system is human liver cells (HepG2). Nature of the data set: HepG2 cytotoxicity (CellTiter-Glo). It counts as cell-based. The settings on record: read-out: IC50 (50% loss of viability), 72 h.
Data set [4] can be described thus: Plasma protein binding by equilibrium dialysis. Background: In equilibrium dialysis only unbound substance equilibrates across the membrane.
Another data set has as its system Mtb H37Rv. Nature of the data set: LORA parallel plates, oxygen-deprived bacteria incubated under aerobic conditions (normal oxygen). It counts as cell-based, Mycobacterium tuberculosis. The conditions noted are these: Mycobacterium tuberculosis, H37RV.
Setting [5] is: Mycobacterium tuberculosis, M. tuberculosis H37Rv, aerobic conditions, primary screen.

T1 sequence (P33261 whole entry): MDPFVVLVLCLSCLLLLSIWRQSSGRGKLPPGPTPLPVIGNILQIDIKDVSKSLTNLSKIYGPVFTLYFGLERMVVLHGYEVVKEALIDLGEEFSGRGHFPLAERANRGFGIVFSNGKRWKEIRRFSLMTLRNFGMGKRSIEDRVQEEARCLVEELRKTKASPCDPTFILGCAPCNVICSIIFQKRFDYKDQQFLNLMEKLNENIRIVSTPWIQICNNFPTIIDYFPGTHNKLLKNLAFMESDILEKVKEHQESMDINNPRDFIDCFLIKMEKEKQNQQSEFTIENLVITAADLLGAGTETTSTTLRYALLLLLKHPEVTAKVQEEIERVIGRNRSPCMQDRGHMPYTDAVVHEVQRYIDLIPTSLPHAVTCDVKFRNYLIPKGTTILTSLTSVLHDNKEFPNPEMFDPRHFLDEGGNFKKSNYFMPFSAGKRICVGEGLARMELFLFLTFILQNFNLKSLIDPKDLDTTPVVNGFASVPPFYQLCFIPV

With `CCOC(=O)c1cc(C(=O)c2ccc(Cl)cc2)n2ccc(-c3cc[n+](CC(=O)c4ccc(C)cc4)cc3)cc12` [Compound 6i], the IC50 was > 5 µM on CYP2C19; 7.2 µM in data set [2] (setting [5]); 14 µM in the data set on Mycobacterium abscessus (Mycobacteroides abscessus); 7 µM in data set [3]; 6.5 µM in the data set on Mtb H37Rv. Half-maximal inhibition in data set [1] (IC50 at 3 days) was put at 3.8 µM. Moreover, the MIC in data set [2] (M. tuberculosis H37Rv, aerobic conditions, primary screen) was 8.0 µM; in data set [2] (MIC value taken from the first MIC assay), 8 µM; in data set [2] (setting [5]), 8 µM; in the data set on Mycobacterium abscessus it was “showed activity”; with Mycobacterium abscessus (Mycobacteroides abscessus, read-out: MIC) it was 25 µM; in the data set on Mtb H37Rv (120 h, oxygen-deprived bacteria, aerobic 5 d), 140 µM. The IC90 in data set [2] (setting [5]) came to 8.2 µM; in the data set with Mycobacterium abscessus (Mycobacteroides abscessus), 23 µM; in the data set on Mtb H37Rv it was 28 µM. For the same compound, the “Mean plasma fraction bound” value in data set [4] (Human plasma, 5 µM, 4 h at 37 °C) was “strongly bound”. In addition, the fraction unbound at 4 h, 5 µM in data set [4] (human, human plasma, 5 µM, 4 h at 37 °C) is 0.003; in data set [4] (human, human plasma, Mean plasma fraction unbound, 5 µM, 4 h at 37 °C) it was 0.0035. In data set [4] (human, human plasma, dialysed against PBS in a RED device), this compound yielded a recovery at 4 h, 5 µM of 48.7%.

Source of the values: PMC6021032, “Antimycobacterial activity of nitrogen heterocycles derivatives: 7-(pyridine-4-yl)-indolizine derivatives. Part VII^8–12” (Journal of Enzyme Inhibition and Medicinal Chemistry, 2017).
